Columns and labels:
[1] = Mouse serum triglyceride level measurements; assay type: in vivo; conditions: treatment for 15 weeks; compared to the UNT group
Description: Mouse serum triglyceride level measurements. Blood samples from the mice were obtained from mouse tails. The analysis of serum triglyceride levels was carried out at the Laboratory of Comparative Pathology of the Memorial Sloan-Kettering Cancer Center. UNT (n=4); 4-NQO (n=3); 4N+B (n=4); 4N+C (n=3), and 4N+B+C (n=4).

[2] = test system: pathways (Reactome, KEGG, MouseCyc) in mouse tongue; test: Pathway enrichment analysis (ConsensusPathDB) of RNA-Seq data
Description: RNA-Seq analysis of mRNA transcriptome. Representative tongue samples were chosen for the RNA-Seq analysis: untreated (n=5), 4-NQO treatment group (n=3), 4N+B (n=4), 4N+C (n=4), and 4N+B+C (n=5). The extraction of total cellular RNA from mouse tissues was carried out using the RNeasy kit (Qiagen). Subsequent RNA preparation steps were carried out at the Genomics Resources Core Facility of WCMC. The measurement of RNA integrity was determined using the Agilent 2100 BioAnalyzer (Agilent Technologies). Samples with RNA integrity number (RIN) values of 10 were used to construct cDNA libraries. mRNA was purified by using pre-prepared Sera-mag Magnetic Oligo(dT) Beads from Illumina Inc. (SanDiego, Calif.), subjected to thermal fragmentation, and reverse transcribed to first strand cDNA. Following the removal of mRNA strands by RNaseH, first strand cDNAs were used as templates to produce double strand cDNAs, and the overhangs resulting from fragmentation were repaired to blunt ends. An ‘A’ base was added to the 3′ end of cDNAs and subsequently the cDNAs were ligated to Illumina paired end (PE) adaptors that have a single ‘T’ base overhang at their 3′ end. The cDNA-adaptor libraries were purified and enriched by 15 cycles of PCR. The enriched libraries were hybridized to a flow cell and amplified, resulting in ultra-high density flow cells with millions of clusters, each containing about 1,000 copies of the templates. The double stranded cDNA-adaptors were denatured and converted into single strand DNA, and then the template cDNAs were amplified one more time isothermally to produce surface-bound colonies. The clonal DNA clusters were linearized, free 3′ OH ends blocked, denatured, hybridized to sequencing primers, and sequenced. The sequencing was conducted by running 4 samples per lane with 51 pair-end cycles on the HISeq2000/1000. The Sequencing-by-Synthesis process used reversible terminators and a DNA polymerase modified to accept reversible terminator nucleotides. After each synthesis cycle the fluorescence of clusters was imaged with high sensitivity. Then the sequencing images were analyzed in three steps, image analysis, base calling, and sequence analysis. The Tophat software was used to align raw sequencing reads against the UCSC mm9 mouse reference genome, and Cufflinks software was employed to measure transcript abundances in the unit of fragments per kilobase of exon model per million mapped reads (FPKM), as well as to perform statistical analysis on the changes in gene expression. The heat maps for genes of interest were generated by R package software.

[3] = Stability of CD1530 in drinking water by HPLC; assay type: physicochemical; conditions: room temperature, final DMSO 0.8%
Excerpt: FIG. 7. CD1530 is stable in the drinking water for at least 7 days at room temperature. CD1530 was first dissolved in 100% DMSO and subsequently diluted in the drinking water (the final concentration of DMSO was 0.8%). The same amounts of the freshly prepared CD1530 containing drinking water and the CD1530 containing water prepared 7 days earlier and stored at the room temperature were subjected to high-performance liquid chromatography (HPLC) analysis.
Drug treatments reduce tongue tumor development. All of the mice tolerated the 10 week 4-NQO treatment, and almost all of the mice survived the 15 week post 4-NQO treatment period (A). We determined that the CD1530 in the regular drinking water was stable for at least 7 days at room temperature by HPLC analysis (FIG. 7); thus, we decided to use drinking water as a delivery method because this method is effective and less laborious.

[4] = test system: tongue lesions (4-NQO induced oral cavity carcinogenesis); test: 4-NQO mouse oral cavity carcinogenesis model: gross tongue lesion number and severity
[5] = test system: MCT4; test: Immunohistochemistry of tongue epithelium: MCT4; assay type: in vivo, mouse; conditions: compared to the 4-NQO group; antibody staining
Excerpt: The tongues were fixed, embedded in paraffin, and sectioned. Then the tissue sections were stained with various antibodies (magnification, 200×). Four to five representative areas of each tongue section from two to four mice/group were photographed and analyzed (FIGS. 12A and 12B). Interleukin-6 (IL-6) is a multifunctional cytokine that is involved in the regulation of immune responses and cellular functions. IL-6 levels are enhanced in human oral squamous cell carcinoma and IL-6 is considered a bad prognostic factor in this cancer (Expert Opin Ther Targets. 2013 January; 17(1):53-9). IL-6 protein was detected primarily in the basal layer of tongue epithelium in the UNT samples (FIG. 12A, arrows), but in the 4-NQO treated samples we observed both an increase in the protein level and an expansion of IL-6 signal to the suprabasal layers of the tongue epithelium (FIG. 12A).

[6] = down-regulated vs. 4-NQO group, KEGG
[7] = down-regulated vs. 4-NQO group, Reactome
[8] = upregulated vs. 4-NQO group, KEGG
[9] = upregulated vs. 4-NQO group, MouseCyc
[10] = upregulated vs. 4-NQO group, Reactome

O=C(O)c1ccc(-c2ccc3cc(O)c(C45CC6CC(CC(C6)C4)C5)cc3c2)cc1 [CD1530]
serum triglyceride levels [1]: did not change serum triglyceride levels significantly
cytochrome P450 enzymes (pathway analysis) ([2]; compared to the 4-NQO group): significantly elevated
candidates contained, pathway Cell cycle-Mus musculus (mouse) [2, 6]: 23 (18.1%)
candidates contained, pathway DNA replication-Mus musculus (mouse) [2, 6]: 9 (25.0%)
candidates contained, pathway ECM-receptor interaction-Mus musculus (mouse) [2, 6]: 13 (15.1%)
candidates contained, pathway Pathways in cancer-Mus musculus (mouse) [2, 6]: 27 (8.4%)
candidates contained, pathway Small cell lung cancer-Mus musculus (mouse) [2, 6]: 13 (14.9%)
candidates contained, pathway p53 signaling pathway-Mus musculus (mouse) [2, 6]: 12 (17.4%)
candidates contained, pathway Activation of ATR in response to replication stress [2, 7]: 11 (28.9%)
candidates contained, pathway Activation of the pre-replicative complex [2, 7]: 11 (37.9%)
candidates contained, pathway Assembly of the pre-replicative complex [2, 7]: 9 (40.9%)
candidates contained, pathway Cell Cycle [2, 7]: 54 (17.8%)
candidates contained, pathway Cell Cycle Checkpoints [2, 7]: 19 (24.7%)
candidates contained, pathway Cell Cycle, Mitotic [2, 7]: 52 (19.4%)
candidates contained, pathway Cyclin A/B1 associated events during G2/M transition [2, 7]: 6 (37.5%)
candidates contained, pathway Cyclin B2 mediated events [2, 7]: 4 (80.0%)
candidates contained, pathway DNA Replication [2, 7]: 41 (26.1%)
candidates contained, pathway DNA Replication Pre-Initiation [2, 7]: 12 (33.3%)
candidates contained, pathway DNA strand elongation [2, 7]: 8 (25.8%)
candidates contained, pathway G1/S Transition [2, 7]: 14 (22.6%)
candidates contained, pathway G2/M Checkpoints [2, 7]: 14 (31.1%)
candidates contained, pathway M Phase [2, 7]: 27 (27.3%)
candidates contained, pathway M/G1 Transition [2, 7]: 12 (33.3%)
candidates contained, pathway Mitotic G1-G1/S phases [2, 7]: 16 (21.9%)
candidates contained, pathway Mitotic M-M/G1 phases [2, 7]: 39 (28.9%)
candidates contained, pathway Mitotic Prometaphase [2, 7]: 26 (27.4%)
candidates contained, pathway Orc1 removal from chromatin [2, 7]: 8 (28.6%)
candidates contained, pathway Regulation of DNA replication [2, 7]: 10 (33.3%)
candidates contained, pathway Removal of licensing factors from origins [2, 7]: 10 (33.3%)
candidates contained, pathway S Phase [2, 7]: 12 (17.4%)
candidates contained, pathway Switching of origins to a post-replicative state [2, 7]: 8 (28.6%)
candidates contained, pathway Synthesis of DNA [2, 7]: 11 (20.4%)
candidates contained, pathway Unwinding of DNA [2, 7]: 6 (54.5%)
candidates contained, pathway Arachidonic acid metabolism-Mus musculus (mouse) [2, 8]: 25 (26.6%)
candidates contained, pathway Ascorbate and aldarate metabolism-Mus musculus (mouse) [2, 8]: 11 (42.3%)
candidates contained, pathway Bile secretion-Mus musculus (mouse) [2, 8]: 23 (32.4%)
candidates contained, pathway Biosynthesis of unsaturated fatty acids-Mus musculus (mouse) [2, 8]: 10 (40.0%)
candidates contained, pathway Complement and coagulation cascades-Mus musculus (mouse) [2, 8]: 38 (50.0%)
candidates contained, pathway Drug metabolism-cytochrome P450-Mus musculus (mouse) [2, 8]: 52 (59.8%)
candidates contained, pathway Drug metabolism-other enzymes-Mus musculus (mouse) [2, 8]: 22 (39.3%)
candidates contained, pathway Fatty acid metabolism-Mus musculus (mouse) [2, 8]: 13 (26.5%)
candidates contained, pathway Glycine, serine and threonine metabolism-Mus musculus (mouse) [2, 8]: 12 (30.8%)
candidates contained, pathway Linoleic acid metabolism-Mus musculus (mouse) [2, 8]: 24 (53.3%)
candidates contained, pathway Maturity onset diabetes of the young-Mus musculus (mouse) [2, 8]: 11 (42.3%)
candidates contained, pathway Metabolic pathways-Mus musculus (mouse) [2, 8]: 160 (13.4%)
candidates contained, pathway Metabolism of xenobiotics by cytochrome P450-Mus musculus (mouse) [2, 8]: 50 (55.6%)
candidates contained, pathway PPAR signaling pathway-Mus musculus (mouse) [2, 8]: 24 (29.6%)
candidates contained, pathway Pentose and glucuronate interconversions-Mus musculus (mouse) [2, 8]: 11 (34.4%)
candidates contained, pathway Peroxisome-Mus musculus (mouse) [2, 8]: 18 (22.8%)
candidates contained, pathway Primary bile acid biosynthesis-Mus musculus (mouse) [2, 8]: 8 (50.0%)
candidates contained, pathway Propanoate metabolism-Mus musculus (mouse) [2, 8]: 11 (34.4%)
candidates contained, pathway Retinol metabolism-Mus musculus (mouse) [2, 8]: 42 (53.2%)
candidates contained, pathway Serotonergic synapse-Mus musculus (mouse) [2, 8]: 24 (17.3%)
candidates contained, pathway Steroid hormone biosynthesis-Mus musculus (mouse) [2, 8]: 19 (34.5%)
candidates contained, pathway Tryptophan metabolism-Mus musculus (mouse) [2, 8]: 16 (36.4%)
candidates contained, pathway Tyrosine metabolism-Mus musculus (mouse) [2, 8]: 11 (28.2%)
candidates contained, pathway beta-Alanine metabolism-Mus musculus (mouse) [2, 8]: 10 (33.3%)
candidates contained, pathway bupropion degradation [2, 9]: 29 (74.4%)
candidates contained, pathway nicotine degradation II [2, 9]: 41 (65.1%)
candidates contained, pathway nicotine degradation III [2, 9]: 35 (63.6%)
candidates contained, pathway Activation of C3 and C5 [2, 10]: 5 (83.3%)
candidates contained, pathway Bile acid and bile salt metabolism [2, 10]: 19 (50.0%)
candidates contained, pathway Biological oxidations [2, 10]: 64 (40.5%)
candidates contained, pathway Chylomicron-mediated lipid transport [2, 10]: 11 (61.1%)
candidates contained, pathway Common Pathway [2, 10]: 9 (69.2%)
candidates contained, pathway Complement cascade [2, 10]: 11 (39.3%)
candidates contained, pathway Cytochrome P450-arranged by substrate type [2, 10]: 42 (51.2%)
candidates contained, pathway Formation of Fibrin Clot (Clotting Cascade) [2, 10]: 18 (52.9%)
candidates contained, pathway Gamma-carboxylation of protein precursors [2, 10]: 6 (66.7%)
candidates contained, pathway Gamma-carboxylation, transport, and amino-terminal cleavage of proteins [2, 10]: 6 (60.0%)
candidates contained, pathway HDL-mediated lipid transport [2, 10]: 9 (52.9%)
candidates contained, pathway Intrinsic Pathway [2, 10]: 10 (50.0%)
candidates contained, pathway Lipid digestion, mobilization, and transport [2, 10]: 18 (36.7%)
candidates contained, pathway Lipoprotein metabolism [2, 10]: 16 (51.6%)
candidates contained, pathway Metabolism [2, 10]: 181 (18.6%)
candidates contained, pathway Metabolism of amino acids and derivatives [2, 10]: 34 (27.4%)
candidates contained, pathway Metabolism of lipids and lipoproteins [2, 10]: 57 (21.8%)
candidates contained, pathway Miscellaneous substrates [2, 10]: 10 (55.6%)
candidates contained, pathway Phase 1-Functionalization of compounds [2, 10]: 51 (51.5%)
candidates contained, pathway Phase II conjugation [2, 10]: 14 (23.3%)
candidates contained, pathway Phenylalanine and tyrosine catabolism [2, 10]: 7 (87.5%)
candidates contained, pathway Platelet degranulation [2, 10]: 19 (29.7%)
candidates contained, pathway Recycling of bile acids and salts [2, 10]: 7 (50.0%)
candidates contained, pathway Removal of aminoterminal propeptides from gamma-carboxylated proteins [2, 10]: 6 (66.7%)
candidates contained, pathway Response to elevated platelet cytosolic Ca2+ [2, 10]: 19 (27.1%)
candidates contained, pathway Synthesis of bile acids and bile salts [2, 10]: 15 (55.6%)
candidates contained, pathway Synthesis of bile acids and bile salts via 7alpha-hydroxycholesterol [2, 10]: 15 (65.2%)
candidates contained, pathway Synthesis of bile acids and bile salts via 24-hydroxycholesterol [2, 10]: 11 (61.1%)
candidates contained, pathway Synthesis of bile acids and bile salts via 27-hydroxycholesterol [2, 10]: 8 (57.1%)
candidates contained, pathway Terminal pathway of complement [2, 10]: 5 (83.3%)
candidates contained, pathway Transport of gamma-carboxylated protein precursors from the ER to the Golgi apparatus [2, 10]: 6 (75.0%)
candidates contained, pathway Xenobiotics [2, 10]: 31 (81.6%)
stable in the drinking water [3]: at least 7 days
number of tongue lesions (gross tongue lesion multiplicity) ([4]; C57BL/6 female mice, 4-NQO 10 weeks, then drug in 15 week post 4-NQO period, bexarotene 300 mg/kg diet, CD1530 […]100 ml drinking water, 4-NQO group 5.9±3.2): 3.9±1.7
average severity of tongue lesions (grade 0-4) ([4]; same model, 4-NQO group 2.8±0.8): 1.6±0.8
MCT4 protein levels in the tongue epithelium [5]: lower MCT4 protein levels

— patent publication US10265378B2, “Combination therapy for head and neck cancer” (Cornell University, priority 2014, dated 2019)
